As a reminder, the EC50 is the concentration at which the effect is half-maximal.

15 compounds from patent US20250108048A1, “STING AGONIST COMPOUNDS AND CONJUGATES” (SUTRO BIOPHARMA, INC., priority 2023, published 2025) can be followed below.

Holding throughout (type): cell-based
Assay [1] addresses T1, mSTING (Mus musculus, UniProt Q3TBT3).
T1 sequence (Q3TBT3 1-378): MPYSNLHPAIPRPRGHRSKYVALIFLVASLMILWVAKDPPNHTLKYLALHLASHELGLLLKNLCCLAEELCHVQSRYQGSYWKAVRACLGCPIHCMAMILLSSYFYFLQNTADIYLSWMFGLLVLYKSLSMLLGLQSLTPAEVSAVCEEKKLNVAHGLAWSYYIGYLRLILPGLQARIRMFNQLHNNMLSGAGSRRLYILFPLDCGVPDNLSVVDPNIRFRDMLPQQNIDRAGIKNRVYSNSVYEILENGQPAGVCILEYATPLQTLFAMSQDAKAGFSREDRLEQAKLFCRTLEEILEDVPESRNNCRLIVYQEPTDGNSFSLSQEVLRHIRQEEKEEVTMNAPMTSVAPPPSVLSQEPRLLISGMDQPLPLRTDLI
In words: THP1-Dual KI-mSTING reporter assay. More on the design: host or cells: THP1-Dual KI-mSTING (from THP1-Dual KO-STING). The following applies: THP1-Dual KI-mSTING cells, 24 hours; read-out: Reporter assay EC50 (nM) THP-1 mSTING. The method, then:
(§1) The activities of the STING agonists to activate human or mouse STING pathways were evaluated in THP-1-Dual™, THP1-Dual™ KI-hSTING-R232, THP1-Dual™ KI-hSTING-H232 Cells and THP1-Dual™ KI-mSTING Cells. THP-1-Dual™ cells contains hSTING-HAQ haplotype and can be used to evaluate the activity of STING agonists by monitoring the activation of NF-κB pathway and the […] (IFN regulatory factor) pathways. THP1-Dual™ KO-STING cells were generated from THP1-Dual™ cells by stable knockout of the endogenous HAQ STING gene. THP1-Dual™ KI-hSTING-R232 cells, THP1-Dual™ KI-hSTING-H232 cells and THP1-Dual™ KI-mSTING cells were generated by transfecting THP1-Dual™ KO-STING cells with hSTING-R232 or hSTING-H232 or mSTING. Stimulating these reporter cells with a STING agonist activates TRF pathway and induces the production of a secreted Lucia luciferase in the cell culture medium, which can be determined using QUANTI-Luc™ reagent.
(§2) THP-1-Dual™, THP1-Dual™ KI-hSTING-R232, THP1-Dual™ KI-hSTING-H232 and THP1-Dual™ KI-mSTING reporter cells were purchased from Invivogen and maintained in manufacture recommended culture medium with required supplemental antibiotics. On the day of assay, the cells were harvested with Accutase and counted by the Vi-CELL Cell Viability Analyzers. Cells were resuspended in HEK blue detection medium and a total of 10000 cells were seeded in each well of a 384-well flat bottom plate. Serial dilutions of STING agonists free drugs (1:3 serial dilution starting from 5 uM) was added into treatment wells. After incubation at 37° C. in a CO2 incubator for 24 hours, 20 μl of cell culture medium per well was transferred into a 384-well white (opaque) plate. 50 μl of QUANTI-Luc™ assay solution was then added to each well and the plate was immediately transferred to an ENVISION® plate reader to measure luminescence (Perkin-Elmer). Relative luminescence readings were converted to fold change of signal using untreated cells as controls. Data was fitted with non-linear regression analysis, using log (agonist) vs. response, variable slope, 4-parameter fit equation using GraphPad Prism. Data was expressed as fold change in signal vs. dose of STING agonist in nM with error bars indicating the Standard Deviation (SD) of the quadruplicates. There result was reported in Table 2 as EC50 (the midpoint of the curve, or concentration at which […] of the maximum effect was observed).
For orientation: Reporter assays use an easily measured gene product as a stand-in for the process of interest.

For assay [2], the target named is T2, hSTING-R232 (Homo sapiens, UniProt Q86WV6, H232R).
T2 construct: host or cells: THP1-Dual KI-hSTING-R232 (from THP1-Dual KO-STING)
T2 sequence (Q86WV6 whole entry H232R): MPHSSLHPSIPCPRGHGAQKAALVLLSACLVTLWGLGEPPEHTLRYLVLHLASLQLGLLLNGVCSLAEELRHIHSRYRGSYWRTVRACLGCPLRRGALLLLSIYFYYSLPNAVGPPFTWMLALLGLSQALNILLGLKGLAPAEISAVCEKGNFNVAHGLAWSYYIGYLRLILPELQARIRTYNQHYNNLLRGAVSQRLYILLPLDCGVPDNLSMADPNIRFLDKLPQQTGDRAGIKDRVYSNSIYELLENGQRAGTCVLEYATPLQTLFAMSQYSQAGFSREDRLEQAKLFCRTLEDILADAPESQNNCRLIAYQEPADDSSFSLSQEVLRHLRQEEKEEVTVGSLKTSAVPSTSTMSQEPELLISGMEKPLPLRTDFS
The experiment in a line: THP1-Dual KI-hSTING-R232 reporter assay (IRF pathway, secreted Lucia luciferase). The conditions noted are these: THP1-Dual KI-hSTING-R232 cells, 24 hours; read-out: Reporter assay EC50 (nM) THP-1-R232. Here is the method: as §1
as §2, with “Serial dilutions of STING agonists free drugs (1:3 serial dilution starting from 5 uM) was added into treatment wells.” left out

Assay [3] concerns the target T3, hSTING-HAQ haplotype (Homo sapiens, UniProt Q86WV6, G230A/H232R/R293Q/R71H).
T3 construct: host or cells: THP-1-Dual
The experiment in a line: THP-1-Dual reporter assay (endogenous hSTING-HAQ). The following applies: THP-1-Dual cells (hSTING-HAQ), 24 hours. Here is the method:
as §1
as §2, with “Serial dilutions of STING agonists free drugs (1:3 serial dilution starting from 5 uM) was added into treatment wells.” left out

Assay [4] addresses hSTING H232 (Homo sapiens, UniProt Q86WV6). The experiment in a line: THP1-Dual KI-hSTING-H232 reporter assay (IRF pathway, secreted Lucia luciferase). Also noted: host or cells: THP1-Dual KI-hSTING-H232 (from THP1-Dual KO-STING). The following applies: THP1-Dual KI-hSTING-H232 cells, 24 hours; read-out: Reporter assay EC50 (nM) THP-1-H232. The method, then: as §1
as §2, with “Serial dilutions of STING agonists free drugs (1:3 serial dilution starting from 5 uM) was added into treatment wells.” left out

Chain of hSTING H232 (Q86WV6 whole entry): as the sequence (Q86WV6 whole entry H232R) above, with R232H counted along it
T3 sequence (Q86WV6 whole entry R71H/G230A/H232R/R293Q): as the sequence (Q86WV6 whole entry H232R) above, with R71H, G230A, R293Q counted along it

Regarding `CCn1nc(C)cc1C(=O)Nc1nc2cc(C(N)=O)cc(OC)c2n1C/C=C/Cn1c(NC(=O)Cc2cnc(C)o2)nc2cc(C(N)=O)cc(OCCCN3CC4(CNCCO4)C3)c21` [Compound 7], the EC50 in assay [1], in assay [2], in assay [3] and in assay [4] was greater than 150 nM in each case.

For the compound `CCn1nc(C)cc1C(=O)Nc1nc2cc(C(N)=O)cc(OC)c2n1C/C=C/Cn1c(NC(=O)Cc2cc(C)n(C)n2)nc2cc(C(N)=O)cc(OCCCN3CC4(CNCCO4)C3)c21` [Compound 9], the EC50 in assay [1], in assay [2], in assay [3] and in assay [4] was greater than 150 nM throughout.

In the case of `CCc1nc(C)oc1C(=O)Nc1nc2cc(C(N)=O)cc(OCCCN3CC4(CNCCO4)C3)c2n1C/C=C/Cn1c(NC(=O)c2cc(C)nn2CC)nc2cc(C(N)=O)cc(OC)c21` [Compound 10], the EC50 in assay [1], in assay [2], in assay [3] and in assay [4] was no more than 50 nM throughout.

For the compound `CCn1nc(C)cc1C(=O)Nc1nc2cc(C(N)=O)cc(OC)c2n1C/C=C/Cn1c(NC(=O)c2oc(C)nc2C)nc2cc(C(N)=O)cc(OCCCN3CC4(CNCCO4)C3)c21` [Compound 11], the EC50 is no more than 50 nM in assay [1], no more than 50 nM in assay [2], greater than 150 nM in assay [3] and no more than 50 nM in assay [4].

Turning to `CCn1nc(C)cc1C(=O)Nc1nc2cc(C(N)=O)cc(OC)c2n1C/C=C/Cn1c(NC(=O)C23CCC(C)(CC2)CC3)nc2cc(C(N)=O)cc(OCCCN3CC4(CNCCO4)C3)c21` [Compound 12], the concentration giving a half-maximal response (EC50) in assay [1], in assay [2], in assay [3] and in assay [4] was greater than 150 nM each time.

Turning to `CCn1nc(C)cc1C(=O)Nc1nc2cc(C(N)=O)cc(OC)c2n1C/C=C/Cn1c(NC(=O)c2cc(C)nn2C)nc2cc(C(N)=O)cc(OCCCN3CC4(CNCCO4)C3)c21` [Compound 13], the EC50 in assay [1], in assay [2], in assay [3] and in assay [4] was no more than 50 nM throughout.

With `CCn1nc(C)cc1C(=O)Nc1nc2cc(C(N)=O)cc(OC)c2n1C/C=C/Cn1c(NC(=O)c2ccnn2CC)nc2cc(C(N)=O)cc(OCCCN3CC4(CNCCO4)C3)c21` [Compound 14], the EC50 in assay [1], in assay [2], in assay [3] and in assay [4] was no more than 50 nM throughout.

`CCc1cc(C(=O)Nc2nc3cc(C(N)=O)cc(OCCCN4CC5(CNCCO5)C4)c3n2C/C=C/Cn2c(NC(=O)c3cc(C)nn3CC)nc3cc(C(N)=O)cc(OC)c32)n(C)n1` [Compound 15]: the EC50 in assay [1], in assay [2], in assay [3] and in assay [4] was greater than 150 nM throughout.

As for `CCn1nc(C)cc1C(=O)Nc1nc2cc(C(N)=O)cc(OC)c2n1C/C=C/Cn1c(NC(=O)c2cc(C)nn2CC)nc2cc(C(N)=O)cc(OCCCN3CC4(C3)CN(C(=O)[C@@H](N)CC(C)C)CCO4)c21` [Compound 16], the EC50 in assay [1], in assay [2], in assay [3] and in assay [4] was no more than 50 nM in each case.

Regarding `CCc1nc(C)oc1C(=O)Nc1nc2cc(C(N)=O)cc(OCCCN3CC4(C3)CN(C(=O)CNC)CCO4)c2n1C/C=C/Cn1c(NC(=O)c2cc(C)nn2CC)nc2cc(C(N)=O)cc(OC)c21` [Compound 18], the EC50 in assay [1] is greater than 150 nM; in assay [2], 50 to 150 nM; in assay [3], 50 to 150 nM; in assay [4] it was greater than 150 nM.

Consider `CCc1nc(C)oc1C(=O)Nc1nc2cc(C(N)=O)cc(OCCCN3CC4(C3)CN(C(=O)[C@H](CC(C)C)NC)CCO4)c2n1C/C=C/Cn1c(NC(=O)c2cc(C)nn2CC)nc2cc(C(N)=O)cc(OC)c21` [Compound 19], for which the 50% effective concentration (EC50) in assay [1] was no more than 50 nM; in assay [2], no more than 50 nM; in assay [3], 50 to 150 nM; in assay [4], 50 to 150 nM.

With `CCc1nc(C)oc1C(=O)Nc1nc2cc(C(N)=O)cc(OCCCN3CC4(C3)CN(C(=O)[C@H](N)CC(C)C)CCO4)c2n1C/C=C/Cn1c(NC(=O)c2cc(C)nn2CC)nc2cc(C(N)=O)cc(OC)c21` [Compound 20], the EC50 is no more than 50 nM in assay [1], no more than 50 nM in assay [2], 50 to 150 nM in assay [3] and 50 to 150 nM in assay [4].

For `CCc1nc(C)oc1C(=O)Nc1nc2cc(C(N)=O)cc(OCCCN3CC4(CNCCO4)C3)c2n1C/C=C/Cn1c(NC(=O)c2cc(C)nn2CC)nc2cc(C(N)=O)cnc21` [Compound 23], the 50% effective concentration (EC50) in assay [1] was 50 to 150 nM; in assay [2] it was no more than 50 nM; in assay [3], 50 to 150 nM; in assay [4], no more than 50 nM.

Regarding `CCn1nc(C)cc1C(=O)Nc1nc2cc(C(N)=O)cc3c2n1C/C=C/Cn1c(NC(=O)c2cc(C)nn2CC)nc2cc(C(N)=O)cc(c21)OCC1(CNC1)CO3` [Compound 24, (3E)-7,25-bis[(2-ethyl-5-methyl-pyrazole-3-carbonyl)amino]spiro[14,18-dioxa-1,6,8,24-tetrazapentacyclo[17.6.1.16,9.023,26.013,27]heptacosa-3,7,9,11,13 (27), 19 (26), 20,22,24-nonaene-16,3′-azetidine]-11,21-dicarboxamide; 2,2,2-trifluoroacetic acid], the EC50 in assay [1] was greater than 150 nM; in assay [2], no more than 50 nM; in assay [3] it was greater than 150 nM; in assay [4], 50 to 150 nM.

`CCc1nc(C)oc1C(=O)Nc1nc2cc(C(N)=O)cc3c2n1C/C=C/Cn1c(NC(=O)c2oc(C)nc2CC)nc2cc(C(N)=O)cc(c21)OCC1(CNC1)CO3` [Compound 25]: the EC50 in assay [1] was no more than 50 nM; in assay [2], no more than 50 nM; in assay [3], greater than 150 nM; in assay [4], no more than 50 nM.
